Holding throughout (assay type): functional, cell-based
Assay [1] deals with KB. Nature of the assay: Cytotoxicity against human KB cells after 1 to 11 days by MTT assay. (In general: Tetrazolium dyes change colour on reduction, which living cells bring about.)
Assay [2] concerns HeLa. Nature of the assay: Cytotoxicity against human HeLa cells after 1 to 11 days by MTT assay.
Assay [3] relates to Daoy. Description: Cytotoxicity against human DaOY cells after 1 to 11 days by MTT assay.

Converted amounts (≈) assume the structure as drawn.

Broadly, the IC50 is the point on the concentration scale where inhibition reaches its midpoint.

As to `C=C1C(=O)O[C@H]2/C=C(\C)CC/C=C(\C)CC[C@H](OC(C)=O)/C(C)=C\C[C@@H]12` [CRASSOCOLIDE P], the IC50 is above 20 µg/mL in assay [1], 10.8 µg/mL (≈ 30.1 µM) in assay [2] and 1.9 µg/mL (≈ 5.3 µM) in assay [3].
Taken in the same sequence, the figures for `C=C1C(=O)O[C@H]2/C=C(\C)CC/C=C(\C)CCC(=O)[C@]3(C)O[C@@H]3C[C@@H]12` [CRASSOCOLIDE N] were 4.7 µg/mL (≈ 14.2 µM), 4.7 µg/mL (≈ 14.2 µM) and 2.8 µg/mL (≈ 8.47 µM).
Take `C=C1C(=O)O[C@H]2/C=C(\C)CC/C=C(\C)CCC(=O)/C(C)=C\C[C@@H]12` [CRASSOCOLIDE O]: the IC50 in assay [1] is above 20 µg/mL; in assay [2], above 20 µg/mL; in assay [3] it was 4.5 µg/mL (≈ 14.3 µM).
For the molecule `CO[C@@]12[C@H](COC(N)=O)C3=C(C(=O)C(C)=C(N)C3=O)N1C[C@@H]1N[C@@H]12` [MITOMYCIN], the half-inhibitory concentration (IC50) was found to be 0.08 µg/mL (≈ 0.239 µM) in assay [1], 0.06 µg/mL (≈ 0.179 µM) in assay [2] and 0.05 µg/mL (≈ 0.15 µM) in assay [3].
